Experimental data as given in ChEMBL document CHEMBL1909046, “DrugMatrix in vitro pharmacology data”.

Experiments:
[1] = biological target: T1, Alpha-2A adrenergic receptor (Homo sapiens, UniProt P08913); format: cell membranes, Sf9, Membrane; details: sf9; note: in other assays of this panel Not Active means under 50% inhibition at 10 µM
T1 sequence (P08913 whole entry): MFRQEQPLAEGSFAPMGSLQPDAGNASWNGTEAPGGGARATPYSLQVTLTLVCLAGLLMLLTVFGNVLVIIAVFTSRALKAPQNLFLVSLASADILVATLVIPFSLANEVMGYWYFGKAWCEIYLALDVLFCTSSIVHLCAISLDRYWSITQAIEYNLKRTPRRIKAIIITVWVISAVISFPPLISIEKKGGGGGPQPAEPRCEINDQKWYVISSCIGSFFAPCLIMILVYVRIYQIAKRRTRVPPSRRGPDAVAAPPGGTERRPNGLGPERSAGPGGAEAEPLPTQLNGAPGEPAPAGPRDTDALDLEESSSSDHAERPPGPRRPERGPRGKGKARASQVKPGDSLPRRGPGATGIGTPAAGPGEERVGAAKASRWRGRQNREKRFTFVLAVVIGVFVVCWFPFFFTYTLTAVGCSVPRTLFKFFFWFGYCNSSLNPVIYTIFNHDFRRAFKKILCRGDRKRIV

[2] = DRUGMATRIX: Serotonin (5-Hydroxytryptamine) 5-HT3 radioligand binding (ligand: [3H] GR-65630); format: cell membranes, Membrane; details: hek293; Not Active = under 50% inhibition at 10 µM
[3] = biological target: 5-hydroxytryptamine receptor 6 (Homo sapiens, UniProt P50406); format: cell membranes, HeLa, Membrane; details: hela; note: in other assays of this panel Not Active means under 50% inhibition at 10 µM
[4] = DRUGMATRIX: Calcium Channel Type L, Phenylalkylamine radioligand binding (ligand: [3H] (-)-Desmethoxyverapamil (D-888)); format: cell membranes, Rattus norvegicus, Wistar, Brain, Membrane; details: Not Active = under 50% inhibition at 10 µM
[5] = biological target: C-C chemokine receptor type 5 (Homo sapiens, UniProt P51681); format: cell membranes, Membrane; details: hek293; note: in other assays of this panel Not Active means under 50% inhibition at 10 µM
[6] = biological target: T2, C-X-C chemokine receptor type 1 (Homo sapiens, UniProt P25024); note: in other assays of this panel Not Active means under 50% inhibition at 10 µM
T2 sequence (P25024 whole entry): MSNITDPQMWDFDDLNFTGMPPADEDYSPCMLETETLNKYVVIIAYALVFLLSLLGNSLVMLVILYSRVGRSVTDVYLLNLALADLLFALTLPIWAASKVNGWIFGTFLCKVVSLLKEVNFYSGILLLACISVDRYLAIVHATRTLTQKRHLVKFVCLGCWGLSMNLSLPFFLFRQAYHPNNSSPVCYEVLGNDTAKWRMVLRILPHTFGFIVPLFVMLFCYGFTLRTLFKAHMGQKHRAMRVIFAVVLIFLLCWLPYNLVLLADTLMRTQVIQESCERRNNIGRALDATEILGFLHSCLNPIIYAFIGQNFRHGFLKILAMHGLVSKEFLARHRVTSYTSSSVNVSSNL

[7] = biological target: T3, Polyunsaturated fatty acid lipoxygenase ALOX15 (Oryctolagus cuniculus, UniProt P12530); assay: biochemical; format: tissue-based, Reticulocytes; details: reticulocytes
T3 sequence (P12530 whole entry): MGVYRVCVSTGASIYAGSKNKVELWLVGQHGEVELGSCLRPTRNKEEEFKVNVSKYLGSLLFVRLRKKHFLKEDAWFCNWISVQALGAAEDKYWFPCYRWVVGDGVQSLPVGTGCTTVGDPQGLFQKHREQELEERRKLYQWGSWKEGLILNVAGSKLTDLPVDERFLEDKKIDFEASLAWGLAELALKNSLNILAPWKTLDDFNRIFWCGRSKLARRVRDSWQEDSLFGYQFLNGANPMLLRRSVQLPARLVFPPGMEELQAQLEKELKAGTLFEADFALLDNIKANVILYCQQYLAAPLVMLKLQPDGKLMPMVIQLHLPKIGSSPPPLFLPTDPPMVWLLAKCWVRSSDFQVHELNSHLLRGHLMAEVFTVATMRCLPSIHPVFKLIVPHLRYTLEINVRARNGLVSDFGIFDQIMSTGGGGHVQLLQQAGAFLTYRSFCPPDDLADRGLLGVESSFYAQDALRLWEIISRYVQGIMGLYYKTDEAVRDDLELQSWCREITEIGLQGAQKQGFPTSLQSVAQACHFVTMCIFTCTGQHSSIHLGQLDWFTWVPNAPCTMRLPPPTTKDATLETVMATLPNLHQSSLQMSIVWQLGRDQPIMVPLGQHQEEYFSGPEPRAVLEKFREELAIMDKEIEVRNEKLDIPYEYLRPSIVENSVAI

Melanocortin receptor 3 = Melanocortin receptor 3 (Homo sapiens, UniProt P41968); format: cell membranes, Membrane; details: hek293; note: in other assays of this panel Not Active means under 50% inhibition at 10 µM
Melanocortin receptor 5 = Melanocortin receptor 5 (Homo sapiens, UniProt P33032); format: cell membranes, HEK293, Membrane; details: hek293; note: in other assays of this panel Not Active means under 50% inhibition at 10 µM
[8] = DRUGMATRIX: Phorbol Ester radioligand binding (ligand: [3H] PDBu); format: cell membranes, Mus musculus, ICR, Brain, Membrane; details: Not Active = under 50% inhibition at 10 µM
[9] = biological target: Protein phosphatase 3 catalytic subunit alpha (Homo sapiens, UniProt Q08209); design: species or system Escherichia coli
[10] = biological target: Tyrosine-protein kinase Lck (Homo sapiens, UniProt P06239); assay: DRUGMATRIX: Protein Tyrosine Kinase, LCK enzyme inhibition (substrate: Poly(Glu:Tyr)); format: cell-based, Insect cells; details: insect cells; Not Active = under 50% inhibition at 10 µM
Cytochrome P450 2C9 = Cytochrome P450 2C9 (Homo sapiens, UniProt P11712); details: bti-tn-5b1-4; note: in other assays of this panel Not Active means under 50% inhibition at 10 µM
Estrogen receptor = biological target: T4, Estrogen receptor (Homo sapiens, UniProt P03372); details: sf9; note: in other assays of this panel Not Active means under 50% inhibition at 10 µM
T4 sequence (P03372 whole entry): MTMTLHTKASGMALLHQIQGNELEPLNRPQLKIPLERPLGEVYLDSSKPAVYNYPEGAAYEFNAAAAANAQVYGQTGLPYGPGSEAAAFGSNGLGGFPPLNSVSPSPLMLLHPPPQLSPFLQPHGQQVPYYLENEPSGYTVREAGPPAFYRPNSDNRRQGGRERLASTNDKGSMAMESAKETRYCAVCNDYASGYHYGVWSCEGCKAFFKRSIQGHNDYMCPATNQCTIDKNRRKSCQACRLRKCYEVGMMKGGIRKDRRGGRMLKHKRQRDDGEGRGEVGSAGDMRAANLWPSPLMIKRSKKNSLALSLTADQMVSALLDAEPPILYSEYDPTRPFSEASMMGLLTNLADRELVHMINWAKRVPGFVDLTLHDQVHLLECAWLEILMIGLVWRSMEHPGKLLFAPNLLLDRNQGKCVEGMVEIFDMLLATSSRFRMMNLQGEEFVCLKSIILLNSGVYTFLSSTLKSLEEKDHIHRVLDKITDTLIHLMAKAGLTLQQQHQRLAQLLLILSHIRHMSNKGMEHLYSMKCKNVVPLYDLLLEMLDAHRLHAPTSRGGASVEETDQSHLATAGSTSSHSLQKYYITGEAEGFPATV

Sequence of Melanocortin receptor 3 (P41968 whole entry): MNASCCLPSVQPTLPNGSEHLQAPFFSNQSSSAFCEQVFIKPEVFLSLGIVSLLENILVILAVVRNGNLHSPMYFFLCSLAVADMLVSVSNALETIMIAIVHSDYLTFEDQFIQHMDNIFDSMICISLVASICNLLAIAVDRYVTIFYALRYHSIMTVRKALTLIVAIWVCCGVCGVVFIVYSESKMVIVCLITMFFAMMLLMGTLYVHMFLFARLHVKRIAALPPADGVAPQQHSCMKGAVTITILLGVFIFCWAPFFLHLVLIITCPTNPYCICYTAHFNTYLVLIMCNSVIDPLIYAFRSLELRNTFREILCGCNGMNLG
Sequence of C-C chemokine receptor type 5 (P51681 whole entry): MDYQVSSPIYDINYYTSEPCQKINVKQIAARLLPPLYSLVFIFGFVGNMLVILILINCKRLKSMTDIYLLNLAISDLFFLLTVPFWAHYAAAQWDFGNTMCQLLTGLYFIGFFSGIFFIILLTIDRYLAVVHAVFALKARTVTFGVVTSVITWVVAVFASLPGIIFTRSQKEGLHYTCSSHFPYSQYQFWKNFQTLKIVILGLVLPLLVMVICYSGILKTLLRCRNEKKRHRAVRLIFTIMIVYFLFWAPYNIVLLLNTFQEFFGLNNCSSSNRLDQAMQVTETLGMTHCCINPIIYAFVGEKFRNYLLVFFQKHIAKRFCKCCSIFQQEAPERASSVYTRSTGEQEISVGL
Sequence of 5-hydroxytryptamine receptor 6 (P50406 whole entry): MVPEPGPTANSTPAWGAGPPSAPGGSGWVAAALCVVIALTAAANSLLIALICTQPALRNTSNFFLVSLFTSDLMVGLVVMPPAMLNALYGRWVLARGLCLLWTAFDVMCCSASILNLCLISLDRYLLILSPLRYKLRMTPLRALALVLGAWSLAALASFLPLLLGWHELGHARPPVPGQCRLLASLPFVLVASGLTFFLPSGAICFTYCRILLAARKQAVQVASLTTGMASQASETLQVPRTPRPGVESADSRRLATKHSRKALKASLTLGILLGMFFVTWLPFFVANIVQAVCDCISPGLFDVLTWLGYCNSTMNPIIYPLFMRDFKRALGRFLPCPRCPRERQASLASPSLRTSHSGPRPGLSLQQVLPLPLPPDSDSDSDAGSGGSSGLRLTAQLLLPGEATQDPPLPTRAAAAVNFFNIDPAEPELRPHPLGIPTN
Sequence of Cytochrome P450 2C9 (P11712 whole entry): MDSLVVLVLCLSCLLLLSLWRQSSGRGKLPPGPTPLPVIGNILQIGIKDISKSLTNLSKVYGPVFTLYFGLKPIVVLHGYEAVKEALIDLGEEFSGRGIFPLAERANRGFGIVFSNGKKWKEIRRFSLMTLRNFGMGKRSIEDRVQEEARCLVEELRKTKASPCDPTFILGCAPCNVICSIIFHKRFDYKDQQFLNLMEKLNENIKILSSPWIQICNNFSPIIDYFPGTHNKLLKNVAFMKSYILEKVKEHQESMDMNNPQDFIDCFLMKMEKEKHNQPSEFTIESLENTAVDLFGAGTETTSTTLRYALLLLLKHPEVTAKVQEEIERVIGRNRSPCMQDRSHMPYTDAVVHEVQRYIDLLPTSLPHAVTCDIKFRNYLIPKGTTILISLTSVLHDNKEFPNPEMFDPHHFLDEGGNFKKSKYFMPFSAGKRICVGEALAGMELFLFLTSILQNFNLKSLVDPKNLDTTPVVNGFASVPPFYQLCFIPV
Sequence of Melanocortin receptor 5 (P33032 whole entry): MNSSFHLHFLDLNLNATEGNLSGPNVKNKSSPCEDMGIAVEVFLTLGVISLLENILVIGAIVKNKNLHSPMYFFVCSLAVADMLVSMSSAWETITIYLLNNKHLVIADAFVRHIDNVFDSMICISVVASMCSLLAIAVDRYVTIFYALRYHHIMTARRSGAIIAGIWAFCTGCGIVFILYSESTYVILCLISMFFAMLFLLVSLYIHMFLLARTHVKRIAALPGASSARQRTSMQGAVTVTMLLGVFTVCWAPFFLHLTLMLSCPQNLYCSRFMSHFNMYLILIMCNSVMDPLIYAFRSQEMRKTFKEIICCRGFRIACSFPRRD
Sequence of Tyrosine-protein kinase Lck (P06239 whole entry): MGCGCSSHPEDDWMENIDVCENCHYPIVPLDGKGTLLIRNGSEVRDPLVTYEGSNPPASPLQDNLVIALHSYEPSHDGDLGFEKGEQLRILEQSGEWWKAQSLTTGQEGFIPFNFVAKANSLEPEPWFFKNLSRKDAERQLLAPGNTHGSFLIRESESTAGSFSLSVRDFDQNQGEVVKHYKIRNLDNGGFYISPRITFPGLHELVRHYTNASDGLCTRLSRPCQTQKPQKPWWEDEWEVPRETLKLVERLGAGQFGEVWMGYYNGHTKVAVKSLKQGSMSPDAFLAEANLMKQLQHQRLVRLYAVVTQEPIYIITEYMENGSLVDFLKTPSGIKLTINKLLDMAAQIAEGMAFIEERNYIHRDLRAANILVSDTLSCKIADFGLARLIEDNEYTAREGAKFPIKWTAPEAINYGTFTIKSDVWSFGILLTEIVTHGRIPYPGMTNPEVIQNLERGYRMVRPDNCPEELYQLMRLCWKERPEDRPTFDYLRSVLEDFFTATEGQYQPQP

O=c1[nH]cc(F)c(=O)[nH]1 [FLUOROURACIL]
Not Active: IC50 [1] | IC50 [2] | Ki [2] | IC50 [3] | IC50 [4] | Ki [4] | IC50 [5] | IC50 [6] | IC50 [7] | IC50 (Melanocortin receptor 3) | IC50 (Melanocortin receptor 5) | IC50 [8] | Ki [8] | IC50 [9] | IC50 [10] | IC50 (Cytochrome P450 2C9) | Ki (Cytochrome P450 2C9) | IC50 (Estrogen receptor)

Nc1nc2c(ncn2COC(CO)CO)c(=O)[nH]1 [GANCICLOVIR]
Not Active: IC50 [1] | IC50 [2] | Ki [2] | IC50 [3] | IC50 [4] | Ki [4] | IC50 [5] | IC50 [6] | IC50 [7] | IC50 (Melanocortin receptor 3) | IC50 (Melanocortin receptor 5) | IC50 [8] | Ki [8] | IC50 [9] | IC50 [10] | IC50 (Cytochrome P450 2C9) | Ki (Cytochrome P450 2C9) | IC50 (Estrogen receptor)

COC1=CC(=O)C[C@@H](C)[C@]12Oc1c(Cl)c(OC)cc(OC)c1C2=O [GRISEOFULVIN]
Not Active: IC50 [1] | IC50 [2] | Ki [2] | IC50 [3] | IC50 [4] | Ki [4] | IC50 [5] | IC50 [6] | IC50 [7] | IC50 (Melanocortin receptor 3) | IC50 (Melanocortin receptor 5) | IC50 [8] | Ki [8] | IC50 [9] | IC50 [10] | IC50 (Cytochrome P450 2C9) | Ki (Cytochrome P450 2C9) | IC50 (Estrogen receptor)

NS(=O)(=O)c1cc2c(cc1Cl)NCNS2(=O)=O [HYDROCHLOROTHIAZIDE]
Not Active: IC50 [1] | IC50 [2] | Ki [2] | IC50 [3] | IC50 [4] | Ki [4] | IC50 [5] | IC50 [6] | IC50 [7] | IC50 (Melanocortin receptor 3) | IC50 (Melanocortin receptor 5) | IC50 [8] | Ki [8] | IC50 [9] | IC50 [10] | IC50 (Cytochrome P450 2C9) | Ki (Cytochrome P450 2C9) | IC50 (Estrogen receptor)

O=C1CN=C(c2ccccc2)c2cc([N+](=O)[O-])ccc2N1 [NITRAZEPAM]
Not Active: IC50 [1] | IC50 [2] | Ki [2] | IC50 [3] | IC50 [4] | Ki [4] | IC50 [5] | IC50 [6] | IC50 [7] | IC50 (Melanocortin receptor 3) | IC50 (Melanocortin receptor 5) | IC50 [8] | Ki [8] | IC50 [9] | IC50 [10] | IC50 (Cytochrome P450 2C9) | Ki (Cytochrome P450 2C9) | IC50 (Estrogen receptor)

CN(C)[C@@H]1C(O)=C(C(N)=O)C(=O)[C@@]2(O)C(O)=C3C(=O)c4c(O)cccc4[C@@](C)(O)[C@H]3[C@H](O)[C@@H]12 [OXYTETRACYCLINE]
Not Active: IC50 [1] | IC50 [2] | Ki [2] | IC50 [3] | IC50 [4] | Ki [4] | IC50 [5] | IC50 [6] | IC50 [7] | IC50 (Melanocortin receptor 3) | IC50 (Melanocortin receptor 5) | IC50 [8] | Ki [8] | IC50 [9] | IC50 [10] | IC50 (Cytochrome P450 2C9) | Ki (Cytochrome P450 2C9) | IC50 (Estrogen receptor)
